Assay results reported in patent US12428406B2 (PMV Pharmaceuticals, Inc., priority 2019, dated 2025).

What follows are compounds tested against T1, p53 Y220C (Homo sapiens, UniProt P04637, Y220C) (assay: In vitro DNA binding activity assay (HTRF / TR-FRET): stabilization of p53 Y220C and increase of its DNA binding activity). Details: recombinant His-tagged p53 Y220C DNA binding domain (aa 94-312), biotin-labeled consensus DNA, incubated at 27° C. or 29° C. for 60 min.
T1 construct: The recombinant protein was a truncation mutant containing only amino acids 94-312 of p53; made in house; host or cells: E. coli
T1 sequence (P04637 94-312, change not shown): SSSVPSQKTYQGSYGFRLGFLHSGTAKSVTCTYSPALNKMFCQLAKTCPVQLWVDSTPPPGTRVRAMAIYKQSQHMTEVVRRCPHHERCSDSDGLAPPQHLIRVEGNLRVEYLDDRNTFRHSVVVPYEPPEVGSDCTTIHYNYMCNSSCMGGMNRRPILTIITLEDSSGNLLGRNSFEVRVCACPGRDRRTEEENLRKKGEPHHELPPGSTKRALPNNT
Format: biochemical
In short: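 Compound effect on DNA binding of recombinant His-p53 Y220C (E. coli) to biotin-labeled consensus DNA, expressed as SC150, the concentration giving 50% increase versus untreated. Serial 3-fold DMSO dilutions of 4.5 mM stocks; room-temperature steps of 15 then 20 min.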

Structure (SMILES)	SC150 (concentration of the compound required to increase the DNA binding activity by 50%)
CN(C)[C@H]1CC[C@H](Nc2cccc3c2cc(C#CCNc2ccc(S(C)(=O)=O)cc2OCCO)n3CC(F)(F)F)CC1 [Compound 87A, 2-(5-methanesulfonyl-2-{[3-(4-{[(1R,4R)-4-(dimethylamino)cyclohexyl]amino}-1-(2,2,2-trifluoroethyl)-1H-indol-2-yl)prop-2-yn-1-yl]amino}phenoxy)ethan-1-ol]	+ (+ = 0 μM ≤ SC150 < 0.05 μM)
COc1cc(S(N)(=O)=O)ccc1NCC#Cc1cc2c(N[C@@H]3CCN(C[C@@H](O)CO)C[C@@H]3F)cccc2n1CC(F)(F)F [Compound 882A]	+ (+ = 0 μM ≤ SC150 < 0.05 μM)
COCCNC(=O)c1ccc(NCC#Cc2cc3c(N[C@H]4CCN(C)C[C@H]4F)cccc3n2CC(F)(F)F)c(OC)c1 (racemic) [Compound 814A, rac-4-{[3-(4-{[(3R,4S)-3-fluoro-1-methylpiperidin-4-yl]amino}-1-(2,2,2-trifluoroethyl)-1H-indol-2-yl)prop-2-yn-1-yl]amino}-3-methoxy-N-(2-methoxyethyl)benzamide]	+ (+ = 0 μM ≤ SC150 < 0.05 μM)
COc1cc(C(=O)Nc2nccs2)ccc1NCC#Cc1cc2c(N[C@@H]3CCN(C)C[C@@H]3F)cccc2n1CC(F)(F)F [Compound 917A]	+ (+ = 0 μM ≤ SC150 < 0.05 μM)
CN1CCC(Nc2cccc3c2cc(C#CCNc2ccc(S(C)(=O)=O)cc2O)n3CC(F)(F)F)CC1 [Compound 486A, 5-methanesulfonyl-2-[(3-{4-[(1-methylpiperidin-4-yl)amino]-1-(2,2,2-trifluoroethyl)-1H-indol-2-yl}prop-2-yn-1-yl)amino]phenol]	+ (+ = 0 μM ≤ SC150 < 0.05 μM)
COCC(O)CN1CCC(Nc2cccc3c2cc(C#CCNc2cc(F)c(C(N)=O)cc2OC)n3CC(F)(F)F)CC1 (centres unmarked) [Compound 683A, 2-fluoro-4-{[3-(4-{[1-(2-hydroxy-3-methoxypropyl)piperidin-4-yl]amino}-1-(2,2,2-trifluoroethyl)-1H-indol-2-yl)prop-2-yn-1-yl]amino}-5-methoxybenzamide]	+ (+ = 0 μM ≤ SC150 < 0.05 μM)
COc1cc(S(C)(=O)=O)ccc1NCC#Cc1cc2c(NC3CCN(C)CC3)cc(F)cc2n1CC(F)(F)F [Compound 475A, 6-fluoro-2-{3-[(4-methanesulfonyl-2-methoxyphenyl)amino]prop-1-yn-1-yl}-N-(1-methylpiperidin-4-yl)-1-(2,2,2-trifluoroethyl)-1H-indol-4-amine]	+++ (+++ = 0.1 μM ≤ SC150 < 0.2 μM)
COc1cc(S(C)(=O)=O)ccc1NCC#Cc1cc2c(NC3CCN([C@H]4CCOC4)CC3)cccc2n1CC(F)(F)F [Compound 723A, 2-{3-[(4-methanesulfonyl-2-methoxyphenyl)amino]prop-1-yn-1-yl}-N-{1-[(3S)-oxolan-3-yl]piperidin-4-yl}-1-(2,2,2-trifluoroethyl)-1H-indol-4-amine]	+ (+ = 0 μM ≤ SC150 < 0.05 μM)
COc1cc(S(C)(=O)=O)ccc1NCC#Cc1cc2c(NC(=O)NC3CCN(C4CCOCC4)CC3)cccc2n1CC(F)(F)F [Compound 14A, 3-(2-{3-[(4-methanesulfonyl-2-methoxyphenyl)amino]prop-1-yn-1-yl}-1-(2,2,2-trifluoroethyl)-1H-indol-4-yl)-1-[1-(oxan-4-yl)piperidin-4-yl]urea]	++++ (++++ = 0.2 μM ≤ SC150 < 1 μM)
CNC(=O)c1ccc(NCC#Cc2cc3c(N[C@H]4CC[C@@H](N5CC6(COC6)C5)CC4)cccc3n2CC(F)(F)F)c(OCCOC)c1 [Compound 237A, 3-(2-methoxyethoxy)-N-methyl-4-{[3-(4-{[(1S,4S)-4-{2-oxa-6-azaspiro[3.3]heptan-6-yl}cyclohexyl]amino}-1-(2,2,2-trifluoroethyl)-1H-indol-2-yl)prop-2-yn-1-yl]amino} benzamide]	+ (+ = 0 μM ≤ SC150 < 0.05 μM)
COc1cc(S(=O)(=O)N(CCO)CCO)ccc1NCC#Cc1cc2c(NC3CCN(CC(C)O)CC3)cccc2n1CC(F)(F)F (centres unmarked) [Compound 595A, N,N-bis(2-hydroxyethyl)-4-{[3-(4-{[1-(2-hydroxypropyl)piperidin-4-yl]amino}-1-(2,2,2-trifluoroethyl)-1H-indol-2-yl)prop-2-yn-1-yl]amino}-3-methoxybenzene-1-sulfonamide]	+ (+ = 0 μM ≤ SC150 < 0.05 μM)
COc1cc(S(C)(=O)=O)ccc1NCC#Cc1cc2c(N[C@H]3CCN(C)C[C@H]3F)cccc2n1CC(F)(F)F (stereo in doubt) [Compound 773A, N-[(3R,4S)-3-fluoro-1-methylpiperidin-4-yl]-2-{3-[(4-methanesulfonyl-2-methoxyphenyl)amino]prop-1-yn-1-yl}-1-(2,2,2-trifluoroethyl)-1H-indol-4-amine]	+ (+ = 0 μM ≤ SC150 < 0.05 μM)
COc1cc(S(C)(=O)=O)ccc1NCC#Cc1cc2c(N[C@@H]3CC[C@H](N)C[C@H]3F)cccc2n1CC(F)(F)F [Compound 936A]	+ (+ = 0 μM ≤ SC150 < 0.05 μM)
CS(=O)(=O)c1ccc(NCC#Cc2cc3c(N[C@H]4CC[C@H](N5CC6(COC6)C5)CC4)cccc3n2CC(F)(F)F)c(OCCF)c1 [Compound 210A, N-((1R,4R)-4-(2-oxa-6-azaspiro[3.3]heptan-6-yl)cyclohexyl)-2-(3-((2-(2-fluoroethoxy)-4-(methylsulfonyl)phenyl)amino)prop-1-yn-1-yl)-1-(2,2,2-trifluoroethyl)-1H-indol-4-amine]	+ (+ = 0 μM ≤ SC150 < 0.05 μM)
CCC(=O)NS(=O)(=O)c1ccc(NCC#Cc2cc3c(NC4CCN(CC(COC(=O)CC)OC(=O)CC)CC4)cccc3n2CC(F)(F)F)c(OC)c1 (centres unmarked) [Compound 628A, 1-(4-{[2-(3-{[2-methoxy-4-(propanamidosulfonyl)phenyl]amino}prop-1-yn-1-yl)-1-(2,2,2-trifluoroethyl)-1H-indol-4-yl]amino}piperidin-1-yl)-3-(propanoyloxy)propan-2-yl propanoate]	+ (+ = 0 μM ≤ SC150 < 0.05 μM)
COc1cc(S(=O)(=O)Nc2cc(C)on2)ccc1NCC#Cc1cc2c(N[C@H]3CC[C@H](N(C)C)CC3)cccc2n1CC(F)(F)F [Compound 55A, 3-methoxy-N-(5-methyl-1,2-oxazol-3-yl)-4-{[3-(4-{[(1R,4R)-4-(dimethylamino)cyclohexyl]amino}-1-(2,2,2-trifluoroethyl)-1H-indol-2-yl)prop-2-yn-1-yl]amino}benzene-1-sulfonamide]	+ (+ = 0 μM ≤ SC150 < 0.05 μM)
COc1cc(C(N)=O)ccc1NCC#Cc1cc2c(N[C@H]3CC[C@H](N4CCOCC4)CC3)cccc2n1CC(F)(F)F [Compound 170A, 3-methoxy-4-{[3-(4-{[(1R,4R)-4-(morpholin-4-yl)cyclohexyl]amino}-1-(2,2,2-trifluoroethyl)-1H-indol-2-yl)prop-2-yn-1-yl]amino}benzamide]	+ (+ = 0 μM ≤ SC150 < 0.05 μM)
COc1cc(C(N)=O)ccc1NCC#Cc1cc2c(N[C@H]3CCN(C)C[C@H]3F)cccc2n1CC(F)(F)F (racemic) [Compound 782A, rac-4-{[3-(4-{[(3R,4S)-3-fluoro-1-methylpiperidin-4-yl]amino}-1-(2,2,2-trifluoroethyl)-1H-indol-2-yl)prop-2-yn-1-yl]amino}-3-methoxybenzamide]	+ (+ = 0 μM ≤ SC150 < 0.05 μM)
COc1cc(S(C)(=O)=O)ccc1NCC#Cc1cc2c(NC3CCN(C)CC3)cccc2n1CC1CO1 (centres unmarked) [Compound 517A, 2-{3-[(4-methanesulfonyl-2-methoxyphenyl)amino]prop-1-yn-1-yl}-N-(1-methylpiperidin-4-yl)-1-[(oxiran-2-yl)methyl]-1H-indol-4-amine]	+++ (+++ = 0.1 μM ≤ SC150 < 0.2 μM)
COc1cc(S(C)(=O)=O)ccc1NCC#Cc1cc2c(N[C@H]3CCN(C)C[C@H]3OC)cccc2n1CC(F)(F)F [Compound 531A, 2-{3-[(4-methanesulfonyl-2-methoxyphenyl)amino]prop-1-yn-1-yl}-N-[(3R,4S)-3-methoxy-1-methylpiperidin-4-yl]-1-(2,2,2-trifluoroethyl)-1H-indol-4-amine]	++ (++ = 0.05 μM ≤ SC150 < 0.1 μM)
COc1cc(S(C)(=O)=O)ccc1NCC#Cc1cc2c(NC3CC[N+]4(CC3)COCC(O)C4)cccc2n1CC(F)(F)F (centres unmarked) [Compound 674A, 4-hydroxy-9-[(2-{3-[(4-methanesulfonyl-2-methoxyphenyl)amino]prop-1-yn-1-yl}-1-(2,2,2-trifluoroethyl)-1H-indol-4-yl)amino]-2-oxa-6λ^5-azaspiro[5.5]undecan-6-ylium]	+ (+ = 0 μM ≤ SC150 < 0.05 μM)
COCCN(C)[C@H]1CC[C@@H](Nc2cccc3c2cc(C#CCNc2ccc(S(N)(=O)=O)cc2OCC#N)n3CC(F)(F)F)CC1 [Compound 165A, 3-(cyanomethoxy)-4-{[3-(4-{[(1S,4S)-4-[(2-methoxyethyl)(methyl)amino]cyclohexyl]amino}-1-(2,2,2-trifluoroethyl)-1H-indol-2-yl)prop-2-yn-1-yl]amino}benzene-1-sulfonamide]	+ (+ = 0 μM ≤ SC150 < 0.05 μM)
CNC(=O)c1ccc(NCC#Cc2cc3c(N[C@H]4CC[C@@H](C#N)CC4)cccc3n2CC(F)(F)F)c(OC)c1 [Compound 35A, 3-methoxy-N-methyl-4-{[3-(4-{[(1S,4S)-4-cyanocyclohexyl]amino}-1-(2,2,2-trifluoroethyl)-1H-indol-2-yl)prop-2-yn-1-yl]amino}benzamide]	+ (+ = 0 μM ≤ SC150 < 0.05 μM)
